Assay results as given in patent US8883841B2, “Oncogenic ras-specific cytotoxic compound and methods of use thereof” (The Board of Regents of the University of Texas System, priority 2005, dated 2014).

Assays:
PKCiota = experiment: Immunohistochemical staining, subcellular localization of PKCiota; format: cell-based, human
Experimental: Effects on subcellular localization of PKCiota. […] To further investigate molecular mechanisms of Oncrasin action the inventors studied the subcellular localization of several molecules involved in Ras-signaling pathway because the functions of Ras and other proteins are directly related to their subcellular localizations. For this purpose, T29Kt1 or H460 cells were seeded on cover glass slides and treated with DMSO or Oncrasin-1 for 12 h. Cells were then fixed with paraformaldehyde, permeabilized with Triton X-100 and stained with various antibodies for immunohistochemical examination. […] Nevertheless, substantial subcellular localization change was detected for PKCiota after Oncrasin-1 treatment (FIG. 6). In both H460 and T29Kt1 cells, both PKCiota and PKCzeta were diffusely distributed in cells with high concentration on cell membrane in nucleus, consisting with previous reports that aPKC contains both nuclear localization signal (NLS) and nuclear export signal (NES), and can shuttle between cytoplasm and nucleus, which was regulated by intramolecular conformational changes, phosphorylation or by treatment with growth factors (Perander et al., 2001; White et al., 2002; Neri et al., 1999). […] Such aggregation of PKCiota was not observed in Oncrasin-resistant T29 and H1299 cells. The inventors then tested whether PKCiota aggregation in the nucleus can be induced by other chemotherapeutic agents such as 5-fluorouracil (5-FU) and paclitaxol.

Ovca429 = experiment: Cell viability, Ovca429 ovary cancer cells; format: cell-based
H2087 = experiment: Cell viability, H2087 lung cancer cells; format: cell-based, human
H23 = experiment: Cell viability, H23 lung cancer cells; format: cell-based, human; settings: H23, Lung

O=Cc1cn(Cc2ccc(Cl)cc2)c2ccccc12 [Oncrasin K001, 1H-Indole-3-carboxaldehyde, 1-[(4-chlorophenyl)methyl]-(9CI)]
PKCiota aggregation in the nucleus, H460 cells (PKCiota; 12 h): aggregation of PKCiota into large foci in nucleus
PKCiota aggregation in the nucleus, T29Kt1 cells (PKCiota; 12 h, comparators at doses giving similar cell killing): aggregation of PKCiota into large foci in nucleus
PKCiota aggregation, T29 and H1299 cells (PKCiota; Oncrasin-resistant cells): not observed
toxicity to T29H cells (T29Ht1 cells; at 33 μM (the highest concentration tested)): not toxic
toxicity to T29Ht1 (T29H) cells (T29Ht1 cells; at any of the doses tested (dose response)): not toxic
cytotoxicity in T29Ht1 cells (T29Ht1 cells; up to 100 μM, the highest concentration tested): no detectable cytotoxicity
IC50 (−LogM) (Ovca429): 4.5 −LogM
IC50 (−LogM) (H2087; H2087, Lung): >4.5 −LogM
effect on H2087 cells (H2087; mutant N-Ras): minimal effect
time course of toxicity in T29Kt1 cells (T29Kt1 cells; 33 μM): time-dependent toxicity
concentration that effectively kills T29K cells (T29Kt1 cells; K-ras mutant): 10 µM
IC50 in T29k cells (T29Kt1 cells; Table 1, value is the negative log10 of mol/L): 5.6
IC50 (T29Kt1 cells; read-out: IC50, T29Kt1 cells, dose-dependent cytotoxicity): 2.5 µM
selectivity for T29Kt1 (T29K) cells in dose-response study (T29Kt1 cells; vs T29 and T29Ht1, 0.1 μM to 33 μM): highly selective
IC50 (−LogM) (H23): >4.5 −LogM
